From patent US11136320B2, “Fused ring derivative used as FGFR4 inhibitor” (JACOBIO PHARMACEUTICALS CO., LTD., priority 2019, dated 2021)
Structures can show the parent of a compound that is named as a salt. Where two headings read alike, the source gives them in different places.

What was measured:
PK analysis of rats = assay type: in vivo; conditions: p.o. (10 mg/kg); for AUC(0-t) / Cmax: rat, plasma, po; for AUC(0-t): read-out: Curve area AUC0-24 h; for Cmax: read-out: Drug concentration in blood Cmax
Experimental: In the present invention, the pharmacokinetics experiment of the compounds in rats was performed using the SD rats (Vitolihua).
(1) Mode of administration: single gavage administration and intravenous injection administration.
(2) Dosage: 10 mg/kg in the gavage administration, 3 mg/kg in the intravenous injection administration.
Gavage administration: before administration, 15 min, 30 min, 1 h, 2 h, 4 h, 6 h, 8 h, 24 h; […]
(4) Sample processing: 200 μL of orbital blood was collected at each sampling time point. After anticoagulation with heparin, the blood was centrifuged at 5500 rpm for 10 min, and 60 μL of the supernatant was taken and put into the refrigerator at −80° C. for waiting for testing.
Samples obtained after administration of Compound 1 were tested using 4000 LC-MS/MS analyzer, wherein, the chromatographic separation conditions for testing were:
Samples obtained after administration of Compound 7 were tested using 4000 LC-MS/MS analyzer, wherein, the chromatographic separation conditions for testing were:
Samples obtained after administration of Compound 16 were tested using 4000 LC-MS/MS analyzer, wherein, the chromatographic separation conditions for testing were: […]

FGFR4 kinase [1] = molecular target: T1, FGFR4 kinase (Homo sapiens (Human), UniProt P22455); assay: biochemical
[2] = system: Hepatoma cell Hep3B (high expression of FGFR4 and FGF19); assay: Hepatoma cell proliferation inhibition experiment (MTS method); assay type: cell-based; conditions: for IC50: Homo sapiens, Hep3B, read-out: Hep3B(IC50 μM)
Excerpt: In this experiment, the MTS method was used to test the inhibitory effect of the compounds on the proliferation of Hepatoma cell Hep3B (high expression of FGFR4 and FGF19), and the half inhibitory concentration IC50 of the compounds to Hep3B was obtained. The Hep3B cell line was purchased from ATCC, and the complete culture medium of the Hep3B cell line was MEM+10% FBS+1% PS. MEM cell culture medium, fetal bovine serum, and trypsin were purchased from Gibco, cell culture flasks were purchased from Greiner, and disposable Cell Counting Plate and Taittinger Blue Solution were purchased from Bio-Rad.
(1) 100 μl Hepatoma cell Hep3B suspension was seeded in a 96-well cell culture plate, and the density of each well was 2.0×10^4 cells/ml.
(3) A mixture of MTS (3-(4,5-dimethylthiazol-2-yl)-5-(3-carboxymethoxyphenyl)-2-(4-sulfophenyl)-2H-tetrazolium)/PMS (phenazine methosulfate) was added into each well for coloration, and MTS/PMS in the mixture was at a ratio of 20:1 (ml:ml). 30 μl of the mixture was added into each well of the culture plate above mentioned in step (2), then the culture plate was incubated for 3 h in the incubator.
(5) The inhibition rate was calculated by the […];
(6) According to the inhibition rate of the different concentrations, the IC50 values of the compounds were obtained by curve fitting.

FGFR4 kinase [3] = molecular target: T1, FGFR4 kinase

T1 sequence (P22455 22-802): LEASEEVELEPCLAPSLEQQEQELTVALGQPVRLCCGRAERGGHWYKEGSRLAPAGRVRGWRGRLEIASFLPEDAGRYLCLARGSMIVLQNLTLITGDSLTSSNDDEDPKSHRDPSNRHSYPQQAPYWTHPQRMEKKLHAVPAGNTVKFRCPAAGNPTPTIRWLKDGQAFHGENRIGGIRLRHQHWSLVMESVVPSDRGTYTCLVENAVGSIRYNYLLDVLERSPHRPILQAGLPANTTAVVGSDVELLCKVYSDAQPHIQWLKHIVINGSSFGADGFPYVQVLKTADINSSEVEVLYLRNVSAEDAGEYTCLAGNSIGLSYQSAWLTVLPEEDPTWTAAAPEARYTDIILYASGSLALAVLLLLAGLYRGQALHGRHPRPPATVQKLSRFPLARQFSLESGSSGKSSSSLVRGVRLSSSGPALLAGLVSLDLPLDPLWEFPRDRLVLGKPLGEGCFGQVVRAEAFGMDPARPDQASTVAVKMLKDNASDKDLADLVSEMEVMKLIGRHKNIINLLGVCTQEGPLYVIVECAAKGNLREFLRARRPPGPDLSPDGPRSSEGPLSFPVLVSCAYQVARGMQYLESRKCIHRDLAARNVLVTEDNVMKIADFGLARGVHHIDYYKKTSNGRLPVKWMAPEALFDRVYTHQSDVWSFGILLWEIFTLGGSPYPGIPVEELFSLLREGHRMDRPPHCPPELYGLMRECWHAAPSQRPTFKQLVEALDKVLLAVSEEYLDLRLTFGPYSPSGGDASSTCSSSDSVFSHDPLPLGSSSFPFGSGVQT

CSCCNc1cc(NC(=O)N2CCCc3cc(CN4CCN(C)CC4=O)c(C=O)nc32)ncc1C#N [Compound 1]
exposure amount AUC0-24 h and maximum drug concentration in blood Cmax compared with the reference compound (PK analysis of rats; SD rats): significantly higher than the reference compound
AUC(0-t) (PK analysis of rats; Sprague-Dawley (SD)): 2370 ng·h/mL
Cmax (PK analysis of rats; Sprague-Dawley (SD)): 833 ng/mL
IC50 (FGFR4 kinase [1]): 0.0015 µM
IC50 ([2]; 120 h incubation): 0.023 µM

CSCCOc1cc(NC(=O)N2CCCc3cc(CN4CCN(C)CC4=O)c(C=O)nc32)ncc1C#N [Compound 2]
IC50 ([2]; 120 h incubation): 0.028 µM

CSC(C)(C)CNc1cc(NC(=O)N2CCCc3cc(CN4CCN(C)CC4=O)c(C=O)nc32)ncc1C#N [Compound 6, N-(5-cyano-4-((2-methyl-2-(methylthio)propyl)amino)pyridin-2-yl)-7-formyl-6-((4-methyl-2-oxopiperazin-1-yl)methyl)-3,4-dihydro-1,8-naphthyridine-1 (2H)-carboxamide]
inhibitory effect on FGFR4 compared with the reference compound (FGFR4 kinase [3]): better inhibitory effect on FGFR4 than the reference compound
IC50 (FGFR4 kinase [1]): 0.0021 µM
IC50 ([2]; 120 h): 0.049 µM

CO[C@@H]1CCN(Cc2cc3c(nc2C=O)N(C(=O)Nc2cc(NCCSC)c(C#N)cn2)CCC3)C1=O [Compound 8, (R)-N-(5-cyano-4-((2-(methylthio)ethyl)amino)pyridin-2-yl)-7-formyl-6-((3-methoxy-2-oxopyrrolidin-1-yl)methyl)-3,4-dihydro-1,8-naphthyridine-1(2H)-carboxamide]
inhibitory effect on Hepatoma cell Hep3B compared with the reference compound [2]: better inhibitory effect
IC50 ([2]; 120 h incubation): 0.008 µM

CO[C@@H]1CCN(Cc2cc3c(nc2C=O)N(C(=O)Nc2cc(N[C@H](C)CSC)c(C#N)cn2)CCC3)C1=O [Compound 9, N-(5-cyano-4-(((R)-1-(methylthio)propan-2-yl)amino)pyridin-2-yl)-7-formyl-6-(((R)-3-methoxy-2-oxopyrrolidin-1-yl)methyl)-3,4-dihydro-1,8-naphthyridine-1(2H)-carboxamide]
inhibitory effect on Hepatoma cell Hep3B compared with the reference compound [2]: better inhibitory effect
IC50 ([2]; 120 h incubation): 0.009 µM

CSC[C@H](C)Nc1cc(NC(=O)N2CCCc3cc(CN4CCN(C)CC4=O)c(C=O)nc32)ncc1C#N [Compound 11, (S)-N-(5-cyano-4-((1-(methylthio)propan-2-yl)amino)pyridin-2-yl)-7-formyl-6-((4-methyl-2-oxopiperazin-1-yl)methyl)-3,4-dihydro-1,8-naphthyridine-1(2H)-carboxamide]
IC50 ([2]; 120 h incubation): 0.035 µM

CSCCNc1cc(NC(=O)N2CCCc3cc(CN4CCCCOC4=O)c(C=O)nc32)ncc1C#N [Compound 16, N-(5-cyano-4-((2-(methylthio)ethyl)amino)pyridin-2-yl)-7-formyl-6-((2-oxo-1,3-oxazepan-3-yl)methyl)-3,4-dihydro-1,8-naphthyridine-1(2H)-carboxamide]
exposure amount AUC0-24 h and maximum drug concentration in blood Cmax compared with the reference compound (PK analysis of rats; SD rats): significantly higher than the reference compound
AUC(0-t) (PK analysis of rats; SD rats): 3670 ng·h/mL
Cmax (PK analysis of rats; SD rats): 936 ng/mL
IC50 ([2]; 120 h incubation): 0.029 µM

CN1CCN(Cc2cc3c(nc2C=O)N(C(=O)Nc2cc(NC4CCSCC4)c(C#N)cn2)CCC3)C(=O)C1 [Compound 20, N-(5-cyano-4-((tetrahydro-2H-thiopyran-4-yl)amino)pyridin-2-yl)-7-formyl-6-((4-methyl-2-oxopiperazin-1-yl)methyl)-3,4-dihydro-1,8-naphthyridine-1(2H)-carboxamide]
exposure amount AUC0-24 h and maximum drug concentration in blood Cmax compared with the reference compound (PK analysis of rats; SD rats): significantly higher than the reference compound
AUC(0-t) (PK analysis of rats; SD rats): 2000 ng·h/mL
Cmax (PK analysis of rats; SD rats): 514 ng/mL
IC50 (FGFR4 kinase [1]): 0.0044 µM
inhibitory effect on Hepatoma cell Hep3B compared with the reference compound [2]: better inhibitory effect
IC50 ([2]; 120 h incubation): 0.021 µM

CN1CCN(Cc2cc3c(nc2C=O)N(C(=O)Nc2cc(NCC[S+](C)[O-])c(C#N)cn2)CCC3)C(=O)C1 (stereo not drawn) [Compound 27, N-(5-cyano-4-((2-(methyl-sulfinyl)ethyl)amino)pyridin-2-yl)-7-formyl-6-((4-methyl-2-oxopiperazin-1-yl)methyl)-3,4-dihydro-1,8-naphthyridine-1(2H)-carboxamide]
inhibitory effect on FGFR4 compared with the reference compound (FGFR4 kinase [3]): better inhibitory effect on FGFR4 than the reference compound
IC50 (FGFR4 kinase [1]): 0.0024 µM
IC50 ([2]; 120 h incubation): 0.282 µM

CN1CCN(Cc2cc3c(nc2C=O)N(C(=O)Nc2cc(NCc4cncs4)c(C#N)cn2)CCC3)C(=O)C1 [Compound 55, N-(5-cyano-4-((thiazol-5-yl-methyl)amino)pyridin-2-yl)-7-formyl-6-((4-methyl-2-oxopiperazin-1-yl)methyl)-3,4-dihydro-1,8-naphthyridine-1(2H)-carboxamide]
IC50 (FGFR4 kinase [1]): 0.003 µM

Cc1ccc(CNc2cc(NC(=O)N3CCCc4cc(CN5CCN(C)CC5=O)c(C=O)nc43)ncc2C#N)s1 [Compound 58, N-(5-cyano-4-(((5-methyl-thiophen-2-yl)methyl)amino)pyridin-2-yl)-7-formyl-6-((4-methyl-2-oxopiperazin-1-yl)methyl)-3,4-dihydro-1,8-naphthyridine-1(2H)-carboxamide]
inhibitory effect on FGFR4 compared with the reference compound (FGFR4 kinase [3]): better inhibitory effect on FGFR4 than the reference compound
IC50 (FGFR4 kinase [1]): 0.0021 µM

CN1CCN(Cc2cc3c(nc2C=O)N(C(=O)Nc2cc(NCc4cscn4)c(C#N)cn2)CCC3)C(=O)C1 [Compound 59, N-(5-Cyano-4-((thiazol-4-yl-methyl)amino)pyridin-2-yl)-7-formyl-6-((4-methyl-2-oxopiperazin-1-yl)methyl)-3,4-dihydro-1,8-naphthyridine-1(2H)-carboxamide]
inhibitory effect on FGFR4 compared with the reference compound (FGFR4 kinase [3]): better inhibitory effect on FGFR4 than the reference compound
IC50 (FGFR4 kinase [1]): 0.0021 µM

CC(Nc1cc(NC(=O)N2CCCc3cc(CN4CCN(C)CC4=O)c(C=O)nc32)ncc1C#N)c1nccs1 (stereo not drawn) [Compound 60, N-(5-cyano-4-((1-(thiazol-2-yl)ethyl)amino)pyridin-2-yl)-7-formyl-6-((4-methyl-2-oxopiperazin-1-yl)methyl)-3,4-dihydro-1,8-naphthyridine-1(2H)-carboxamide]
IC50 (FGFR4 kinase [1]): 0.003 µM

CN1CCN(Cc2cc3c(nc2C=O)N(C(=O)Nc2cc(NCc4ccsn4)c(C#N)cn2)CCC3)C(=O)C1 [Compound 68, N-(5-Cyano-4-((isothiazol-3-yl-methyl)amino)pyridin-2-yl)-7-formyl-6-((4-methyl-2-oxopiperazin-1-yl)methyl)-3-1,4-dihydro-1,8-naphthyridine-1(2H)-carboxamide]
IC50 ([2]; 120 h incubation): 0.026 µM

CCSCCNc1cc(NC(=O)N2CCCc3cc(CN4CCN(C)CC4=O)c(C=O)nc32)ncc1C#N [Compound 71, N-(5-cyano-44 (2-(ethylthio)ethypamino)pyridin-2-yl)-7-formyl-64 (4-methyl-2-oxopiperazin-1-yl)methyl)-3,4-dihydro-1,8-naphthyridine-1 (2H)-carboxamide hydrochloride]
exposure amount AUC0-24 h and maximum drug concentration in blood Cmax compared with the reference compound (PK analysis of rats; SD rats): significantly higher than the reference compound
AUC(0-t) (PK analysis of rats; Sprague-Dawley (SD)): 1950 ng·h/mL
Cmax (PK analysis of rats; Sprague-Dawley (SD)): 657 ng/mL
IC50 (FGFR4 kinase [1]): 0.0024 µM
IC50 ([2]; 120 h): 0.049 µM

CSCCNc1cc(NC(=O)N2CCCc3cc(CN(C)C(=O)[C@H]4CCCO4)c(C=O)nc32)ncc1C#N [Compound 74, (R)-N-(5-cyano-4-((2-(methylthio)ethyl)amino)pyridin-2-yl)-7-formyl-6-((N-methyltetrahydrofuran-2-carboxamido)methyl)-3,4-dihydro-1,8-naphthyridine-1(2H)-carboxamide hydrochloride]
IC50 ([2]; 120 h incubation): 0.06 µM

CSCC(C)Nc1cc(NC(=O)N2CCCc3cc(CN4CCN(C)CC4=O)c(C=O)nc32)ncc1C#N (stereo not drawn) [Compound 82, N-(5-cyano-4-((1-(methyl-thio)propan-2-yl)amino)pyridin-2-yl)-7-formyl-6-((4-methyl-2-oxopiperazin-1-yl)methyl)-3,4-dihydro-1,8-naphthyridine-1(2H)-carboxamide]
inhibitory effect on Hepatoma cell Hep3B compared with the reference compound [2]: better inhibitory effect
IC50 ([2]; 120 h incubation): 0.02 µM
